{
  "source": "the Kinase Knowledgebase extract (Sharma et al. 2016)",
  "data": [
    {"molecular_target": "PIK3CA (human) (UniProt P42336)", "sequence (P42336 whole entry, looked up)": "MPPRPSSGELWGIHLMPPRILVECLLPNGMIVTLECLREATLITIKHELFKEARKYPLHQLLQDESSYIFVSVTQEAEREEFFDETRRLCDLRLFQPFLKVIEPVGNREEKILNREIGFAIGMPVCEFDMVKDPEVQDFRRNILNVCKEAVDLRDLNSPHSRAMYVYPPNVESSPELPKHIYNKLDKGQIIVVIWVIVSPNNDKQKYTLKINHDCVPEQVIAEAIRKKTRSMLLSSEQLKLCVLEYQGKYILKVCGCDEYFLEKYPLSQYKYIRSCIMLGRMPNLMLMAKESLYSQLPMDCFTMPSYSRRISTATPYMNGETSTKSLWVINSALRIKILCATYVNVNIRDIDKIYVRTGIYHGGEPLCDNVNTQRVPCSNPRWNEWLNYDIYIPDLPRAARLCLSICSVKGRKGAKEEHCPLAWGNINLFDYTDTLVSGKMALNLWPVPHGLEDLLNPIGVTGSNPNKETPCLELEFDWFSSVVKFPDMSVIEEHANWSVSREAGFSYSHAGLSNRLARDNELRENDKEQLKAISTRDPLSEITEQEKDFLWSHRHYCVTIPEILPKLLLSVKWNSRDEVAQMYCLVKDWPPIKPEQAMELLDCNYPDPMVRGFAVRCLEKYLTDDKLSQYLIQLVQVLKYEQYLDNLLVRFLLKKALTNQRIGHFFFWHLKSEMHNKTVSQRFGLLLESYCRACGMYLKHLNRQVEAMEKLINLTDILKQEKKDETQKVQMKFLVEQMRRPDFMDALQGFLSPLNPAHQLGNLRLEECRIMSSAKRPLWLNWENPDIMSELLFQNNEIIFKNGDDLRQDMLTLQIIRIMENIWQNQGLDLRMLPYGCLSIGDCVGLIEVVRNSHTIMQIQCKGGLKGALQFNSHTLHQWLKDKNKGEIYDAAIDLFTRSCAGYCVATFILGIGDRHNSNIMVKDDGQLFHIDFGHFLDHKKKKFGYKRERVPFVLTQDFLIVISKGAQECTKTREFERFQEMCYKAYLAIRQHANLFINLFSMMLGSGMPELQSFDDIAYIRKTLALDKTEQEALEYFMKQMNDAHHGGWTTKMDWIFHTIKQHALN", "assay": "Assessment of PIK3CA Kinase Activity", "units": {"IC50": "nM"}, "values": [
      {"molecule": "Nc1ccc(-c2cnc3sc(N[C@H]4CC[C@H](O)CC4)nn23)cn1", "IC50": "50 to 1000"},
      {"molecule": "NCC(=O)O[C@H]1CC[C@H](Nc2nn3c(-c4cnc(N)c(C(F)(F)F)c4)cnc3s2)CC1", "IC50": "1 to 50"},
      {"molecule": "Cc1nc2sc(NC3CCN(S(C)(=O)=O)CC3)nn2c1-c1cnc(N)c(C(F)(F)F)c1", "IC50": "1 to 50"},
      {"molecule": "CS(=O)(=O)NC1CCCN(c2nn3c(-c4cnc(N)c(C(F)(F)F)c4)cnc3s2)C1", "note": "(configuration not stated)", "IC50": "50 to 1000"},
      {"molecule": "CCNC(=O)N1CCC(CNc2nn3c(-c4cnc(N)c(C(F)(F)F)c4)cnc3s2)CC1", "IC50": "1 to 50"},
      {"molecule": "CCNC(=O)NCCNc1nn2c(-c3cnc(N)c(C(F)(F)F)c3)cnc2s1", "IC50": "50 to 1000"},
      {"molecule": "CC(=O)N1CCC(Nc2nn3c(-c4cnc(N)c(C(F)(F)F)c4)cnc3s2)CC1", "IC50": 18},
      {"molecule": "CS(=O)(=O)N1CC2(CCCN(c3nn4c(-c5cnc(N)c(C(F)(F)F)c5)cnc4s3)C2)C1", "IC50": "50 to 1000"},
      {"molecule": "c1cc(-c2cnc3sc(N4CCOCC4)nn23)c2cn[nH]c2c1", "IC50": "50 to 1000"},
      {"molecule": "CN(c1nn2c(-c3cnc(N)c(C(F)(F)F)c3)cnc2s1)[C@H]1CC[C@H](O)CC1", "IC50": "50 to 1000"},
      {"molecule": "CC(=O)O[C@H]1CC[C@H](Nc2nn3c(-c4cnc(N)c(C(F)(F)F)c4)c(Cl)nc3s2)CC1", "IC50": "50 to 1000"},
      {"molecule": "CC(C)(C)OC(=O)N[C@H]1CC[C@H](Nc2nn3c(-c4cnc(N)c(C(F)(F)F)c4)cnc3s2)CC1", "IC50": 12},
      {"molecule": "C[C@]1(O)CC[C@H](Nc2nn3c(-c4cnc(N)c(C(F)(F)F)c4)cnc3s2)CC1", "IC50": "1 to 50"},
      {"molecule": "CC(C)(C)OC(=O)N1CCC2(CC1)CCN(c1nn3c(-c4cnc(N)c(C(F)(F)F)c4)cnc3s1)CC2", "IC50": 1600},
      {"molecule": "CCNC(=O)N[C@H]1CC[C@@H](Nc2nn3c(-c4cnc(N)c(C(F)(F)F)c4)cnc3s2)CC1", "IC50": 63},
      {"molecule": "CS(=O)(=O)N1CCC(Nc2nn3c(-c4cncc(C#N)c4)cnc3s2)CC1", "IC50": "50 to 1000"},
      {"molecule": "CO[C@H]1CC[C@H](N(C)c2nn3c(-c4cnc(N)c(C(F)(F)F)c4)cnc3s2)CC1", "IC50": 27},
      {"molecule": "Nc1ncc(-c2cnc3sc(NCC4CCNCC4)nn23)cc1C(F)(F)F", "IC50": "50 to 1000"},
      {"molecule": "COc1cncc(-c2cnc3sc(NC4CCNCC4)nn23)c1", "IC50": "50 to 1000"},
      {"molecule": "CN(c1nn2c(-c3cnc(N)c(C(F)(F)F)c3)cnc2s1)[C@H]1CC[C@](C)(O)CC1", "IC50": 205},
      {"molecule": "CS(=O)(=O)N1CCC(Nc2nn3c(-c4cnc(N5CCNCC5)c(C(F)(F)F)c4)cnc3s2)CC1", "IC50": 1400},
      {"molecule": "CN(c1nn2c(-c3cnc(N)c(C(F)(F)F)c3)cnc2s1)[C@H]1CC[C@@](C)(O)CC1", "IC50": "50 to 1000"},
      {"molecule": "Nc1ncc(-c2cnc3sc(NCCN4CCNCC4)nn23)cc1C(F)(F)F", "IC50": "50 to 1000"},
      {"molecule": "CN(c1nn2c(-c3cnc(N)c(C(F)(F)F)c3)cnc2s1)C1CCN(S(C)(=O)=O)CC1", "IC50": 62},
      {"molecule": "Nc1ncc(-c2cnc3sc(N4CCC5(CCNCC5)CC4)nn23)cc1C(F)(F)F", "IC50": 141},
      {"molecule": "Nc1ncc(-c2cnc3sc(N4CCCC(CO)C4)nn23)cc1C(F)(F)F", "note": "(configuration not stated)", "IC50": 179},
      {"molecule": "CC(C)(C)OC(=O)N1CCC2(CC1)CC(Nc1nn3c(-c4cnc(N)c(C(F)(F)F)c4)cnc3s1)C2", "IC50": "50 to 1000"},
      {"molecule": "Nc1ncc(-c2cnc3sc(NC4CCN(S(=O)(=O)C5CNC5)CC4)nn23)cc1C(F)(F)F", "IC50": 14},
      {"molecule": "COc1cncc(-c2cnc3sc(NC4CCN(S(C)(=O)=O)CC4)nn23)c1", "IC50": "50 to 1000"},
      {"molecule": "CS(=O)(=O)N1CCC(Nc2nn3c(-c4cncc(C(F)(F)F)c4)cnc3s2)CC1", "IC50": "50 to 1000"},
      {"molecule": "Nc1ncc(-c2cnc3sc(N[C@H]4CC[C@H](N)CC4)nn23)cc1C(F)(F)F", "IC50": 42},
      {"molecule": "Nc1ncc(-c2c(Cl)nc3sc(N[C@H]4CC[C@H](NS(=O)(=O)c5ccc(F)cc5F)CC4)nn23)cc1C(F)(F)F", "IC50": 1700},
      {"molecule": "CC(C)(C)OC(=O)NCC1CCN(c2nn3c(-c4cnc(N)c(C(F)(F)F)c4)cnc3s2)CC1", "IC50": "50 to 1000"},
      {"molecule": "CC(C)(C)OC(=O)N1CC(S(=O)(=O)N2CCC(Nc3nn4c(-c5cnc(N)c(C(F)(F)F)c5)cnc4s3)CC2)C1", "IC50": 131},
      {"molecule": "Cc1cncc(-c2cnc3sc(NC4CCN(S(C)(=O)=O)CC4)nn23)c1", "IC50": "50 to 1000"},
      {"molecule": "Nc1ncc(-c2cnc3sc(N4CC5(CCNCC5)C4)nn23)cc1C(F)(F)F", "IC50": "50 to 1000"},
      {"molecule": "Nc1ncc(-c2cnc3sc(N[C@H]4CC[C@H](NS(=O)(=O)c5ccc(F)cc5F)CC4)nn23)cc1C(F)(F)F", "IC50": "50 to 1000"},
      {"molecule": "CC(C)(C)OC(=O)NC1CCN(c2nn3c(-c4cnc(N)c(C(F)(F)F)c4)cnc3s2)C1", "note": "(configuration not stated)", "IC50": 177},
      {"molecule": "CC(C)(C)OC(=O)N1CCN(CCNc2nn3c(-c4cnc(N)c(C(F)(F)F)c4)cnc3s2)CC1", "IC50": 86},
      {"molecule": "CS(=O)(=O)NC1CCN(c2nn3c(-c4cnc(N)c(C(F)(F)F)c4)cnc3s2)C1", "note": "(configuration not stated)", "IC50": "50 to 1000"},
      {"molecule": "NCC1CCN(c2nn3c(-c4cnc(N)c(C(F)(F)F)c4)cnc3s2)CC1", "IC50": "50 to 1000"},
      {"molecule": "CS(=O)(=O)NCC1CCN(c2nn3c(-c4cnc(N)c(C(F)(F)F)c4)cnc3s2)CC1", "IC50": "50 to 1000"},
      {"molecule": "COC(=O)C1CCN(c2nn3c(-c4cnc(N)c(C(F)(F)F)c4)cnc3s2)CC1", "IC50": 297},
      {"molecule": "Nc1ncc(-c2cnc3sc(NC[C@H]4CC[C@H](O)CC4)nn23)cc1C(F)(F)F", "IC50": 129},
      {"molecule": "Nc1ncc(-c2cnc3sc(N4CCCC(C(=O)O)C4)nn23)cc1C(F)(F)F", "note": "(configuration not stated)", "IC50": "50 to 1000"},
      {"molecule": "CCOC(=O)C1CCCN(c2nn3c(-c4cnc(N)c(C(F)(F)F)c4)cnc3s2)C1", "note": "(configuration not stated)", "IC50": "50 to 1000"},
      {"molecule": "CC(C)S(=O)(=O)N1CCC(Nc2nn3c(-c4cnc(N)c(C(F)(F)F)c4)cnc3s2)CC1", "IC50": 291}
    ]}
  ]
}
